The test system of assay [1] is DNA replication of sperm chromatin in Xenopus egg extracts. Description: In vitro DNA replication assay in Xenopus S-phase egg extracts ([α-32P]dGTP incorporation). Format: biochemical. To be noted: 10, 50, 150 and 300 µM. Here is the method: Xenopus egg extracts were prepared according to the method of Murray. Replication of sperm chromatin in S-phase egg extracts was monitored as previously described. Compounds identified by HTS were added to replication reactions immediately prior to addition of [α-^32P]dGTP (Perkin Elmer BLU514H250UC).
To determine whether the four remaining confirmed HTS hits affected DNA replication, in vitro replication assays were performed using Xenopus S-phase egg extracts incubated with sperm chromatin [25, 34]. DNA replication was measured in the presence of bronopol, fumarprotocetraric acid, iriginol and suramin or DMSO by the incorporation of [α-^32P]dGTP. […] For this reason, further studies focused on suramin alone.
Figure 1. Suramin inhibits DNA replication in an in vitro Xenopus replication assay. HTS hits were evaluated for inhibition of [α-^32P]dGTP incorporation into DNA using a cell-free extract prepared from Xenopus eggs at increasing concentrations (10, 50, 150 and 300 µM indicated by black triangle from right to left). No chemical (–) and DMSO were used as negative controls for replication inhibition (far left and far right lanes).

The target of assay [2] is T1, Xenopus internal domain Mcm10 (xMcm10-ID) (Xenopus laevis, UniProt Q5EAW4).
T1 construct: xMcm10-ID (amino acid residues 229 to 427); 6xHis (HRV 3C site) (N, cleaved yes); made in house; host or cells: E. coli BL21(DE3)
T1 sequence (Q5EAW4 229-427): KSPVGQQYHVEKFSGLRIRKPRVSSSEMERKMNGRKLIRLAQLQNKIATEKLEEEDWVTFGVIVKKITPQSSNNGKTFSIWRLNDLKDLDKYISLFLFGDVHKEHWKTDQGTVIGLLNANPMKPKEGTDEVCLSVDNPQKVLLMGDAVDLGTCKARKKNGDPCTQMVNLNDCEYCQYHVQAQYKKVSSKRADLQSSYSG
Nature of the assay: Fluorescence polarization HTS and dose-response assay, 5′-6FAM probe binding to xMcm10-ID. To be noted: dose-response with repurchased or purchased compound. On the procedure:
(§1) A fluorescence polarization (FP) HTS assay was established to detect inhibitors of the binding of the 5′-6FAM 10-mer oligo probe to Mcm10. Test compounds dissolved in DMSO were added to 384-well plates (Corning 4514) using an Echo 550 acoustic dispenser (final DMSO 0.1%) to achieve a final single point screening concentration of 10 µM. Then 10 µl of 2× Xenopus internal domain Mcm10 (xMcm10-ID, final concentration 2 µM) in binding buffer (20 mM Tris HCl, 100 mM NaCl, 5% glycerol, and 0.01% triton, pH 7.5) was added using the Combi nL Multidrop dispenser. Finally, 10 µl of 2× 5′-6FAM DNA (final 12.5 nM) in binding buffer was added using the Multidrop. DMSO (0.1%, high signal) and probe only (low signal) controls were included on every plate. Plates were mixed for 2 min, incubated for 60 min at RT in the dark, and read on a CLARIOstar multimode plate reader (excitation: 482-16, emission: 530-40, dichroic filter: LP504).
(§2) The LOPAC pilot screen identified the sulfhydryl reagent 4-chloromercuribenzoic acid as an inhibitor in the fluorescence polarization (FP) assay. As there was no known Mcm10 inhibitor, 4-chloromercuribenzoic acid (30 μM) was used as a positive control on initial screening plates. Following the discovery of suramin as a Mcm10 inhibitor, suramin (7 μM) was used as a positive control on subsequent screening plates. To confirm activity, screening hits were tested in dose response experiments (8 concentrations in duplicate) using xMcm10-ID. Similar dose response experiments were conducted with suramin and its analogs to confirm activity for hMcm10-ID (1 μM) and xMcm10-FL (2 μM) and to determine selectivity relative to RPA70AB (0.4 μM). Saturation experiments for each protein were conducted using increasing concentrations of protein with a fixed probe concentration (12.5 nM). FP was measured in mP units, and ∆mP values for each well were calculated as the difference between the measured mP and the average of the “probe only” controls. […] The parallel and perpendicular mP values were also used to calculate total fluorescence intensity (TFI) determined by the sum of parallel mP + (2 x perpendicular mP). TFI was used to detect fluorescence interference by compounds [1]. […] IC50 values were calculated using the four parameter logistic equation in Prism 6.0 (GraphPad). Ki values were obtained using an online Ki calculator according to the equations of Nikolovska-Coleska (http://sw16.im.med.umich.edu/soft-ware/calc_ki/). KD values were calculated using the one site or two site binding equations in Prism 6.0 (GraphPad).
On the technique in general: In fluorescence polarisation assays a small probe gives low polarisation when free and higher when bound to something large.

The target of assay [3] is T2, human RPA70AB (A and B DNA binding domains of RPA70) (Homo sapiens, UniProt P27694).
T2 construct: recombinant human RPA70AB (181-422) in a pSV281 vector; 6xHis (TEV site) (N, cleaved yes); made in house; host or cells: Escherichia coli BL21(DE3)
T2 sequence (P27694 181-422): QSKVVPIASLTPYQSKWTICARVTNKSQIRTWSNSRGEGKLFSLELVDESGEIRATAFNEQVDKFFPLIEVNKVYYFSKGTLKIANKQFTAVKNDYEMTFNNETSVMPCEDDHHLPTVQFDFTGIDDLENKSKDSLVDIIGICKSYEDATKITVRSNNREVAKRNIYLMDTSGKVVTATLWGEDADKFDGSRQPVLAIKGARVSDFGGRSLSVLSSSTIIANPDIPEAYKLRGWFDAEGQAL
Nature of the assay: Fluorescence polarization competition assay, displacement of 5′-6FAM ssDNA probe from RPA70AB. Particulars: for Ki: mean ± s.e.m., n ≥ 3; for selectivity RPA/ hMcm10: ratio of hRPA70AB Ki2 to hMcm10-ID Ki (FP). Here is the method:
as §1, §2

In assay [4] the target is T3, human Mcm10 internal domain (hMcm10-ID) (Homo sapiens, UniProt Q7L590).
T3 construct: hMcm10-ID (residues 237 to 436) were expressed in E. coli strain BL21(DE3); 6xHis (HRV 3C site) (N, cleaved yes); made in house; host or cells: E. coli BL21(DE3)
T3 sequence (Q7L590 237-436): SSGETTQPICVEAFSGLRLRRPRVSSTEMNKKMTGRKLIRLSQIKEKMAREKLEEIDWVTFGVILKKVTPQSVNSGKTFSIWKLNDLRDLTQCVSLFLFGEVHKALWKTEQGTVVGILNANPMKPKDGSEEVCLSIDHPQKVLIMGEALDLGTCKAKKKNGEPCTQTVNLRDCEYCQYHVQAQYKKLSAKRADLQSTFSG
Nature of the assay: Fluorescence polarization competition assay, displacement of 5′-6FAM 10-mer ssDNA probe from hMcm10-ID. Format: binding. To be noted: mean ± s.e.m., n ≥ 3; hMcm10-ID 1 μM, probe 12.5 nM. On the procedure:
as §1, §2

Assay [5] has as its target T4, full-length Xenopus Mcm10 (xMcm10-FL) (Xenopus laevis, UniProt Q5EAW4).
T4 construct: The full-length xMcm10 was expressed with MBP fused onto the N-terminus and 6x-His tag attached to the C-terminus; 6xHis (C); made in house; host or cells: E. coli BL21(DE3), as for the ID constructs ('as described above')
T4 sequence (Q5EAW4 1-860): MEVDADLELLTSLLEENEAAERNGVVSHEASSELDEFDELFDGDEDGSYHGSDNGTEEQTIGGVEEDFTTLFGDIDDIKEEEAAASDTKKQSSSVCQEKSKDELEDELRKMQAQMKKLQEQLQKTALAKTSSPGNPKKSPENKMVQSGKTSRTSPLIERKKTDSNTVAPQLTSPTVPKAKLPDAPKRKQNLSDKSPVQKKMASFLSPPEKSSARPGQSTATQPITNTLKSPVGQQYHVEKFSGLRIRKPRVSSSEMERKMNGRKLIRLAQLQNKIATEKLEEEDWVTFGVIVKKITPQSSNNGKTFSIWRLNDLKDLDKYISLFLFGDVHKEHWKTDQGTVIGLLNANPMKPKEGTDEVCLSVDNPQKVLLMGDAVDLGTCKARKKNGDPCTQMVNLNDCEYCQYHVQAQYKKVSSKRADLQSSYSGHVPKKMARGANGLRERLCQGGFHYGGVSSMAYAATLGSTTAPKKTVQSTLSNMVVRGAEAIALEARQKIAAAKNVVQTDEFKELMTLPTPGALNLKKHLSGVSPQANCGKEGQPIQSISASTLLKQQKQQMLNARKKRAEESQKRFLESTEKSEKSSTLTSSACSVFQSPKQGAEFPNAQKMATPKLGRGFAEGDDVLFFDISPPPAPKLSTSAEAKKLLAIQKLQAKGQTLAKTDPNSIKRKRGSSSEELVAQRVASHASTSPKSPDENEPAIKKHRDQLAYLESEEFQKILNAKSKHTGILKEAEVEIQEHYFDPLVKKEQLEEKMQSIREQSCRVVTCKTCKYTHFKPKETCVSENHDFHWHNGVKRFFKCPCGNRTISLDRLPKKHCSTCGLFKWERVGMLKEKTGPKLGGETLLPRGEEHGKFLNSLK
Description: Fluorescence polarization competition assay, displacement of 5′-6FAM ssDNA probe from xMcm10-FL. Format: binding. Particulars: averages of n = 2; xMcm10-FL 2 μM. On the procedure:
as §1, §2

The target in assay [6] is T5, hMcm10-ID (Homo sapiens, UniProt Q7L590).
T5 construct: hMcm10-ID (residues 237 to 436) were expressed in E. coli strain BL21(DE3); 6xHis (HRV 3C site) (N, cleaved yes); made in house; host or cells: E. coli BL21(DE3)
T5 sequence (Q7L590 237-436): T3 sequence (Q7L590 237-436)
Nature of the assay: Surface plasmon resonance binding kinetics on immobilized hMcm10-ID (Biacore S200). To be noted: for surface plasmon resonance hMcm10-ID kd / kon / Kd: 1:1 model, 6000–8000 RU; for surface plasmon resonance hMcm10-ID kd / kon: 25°C; for kon: read-out: surface plasmon resonance hMcm10-ID ka; for Kd: calculated from association and dissociation rate constants, read-out: surface plasmon resonance hMcm10-ID kinetic KD; for SPR binding kinetics (description of sensorgrams): immobilized hMcm10-ID. On the procedure: SPR experiments were performed using a Biacore S200 (GE Healthcare) equipped with a research-grade CM5 sensor chip. hMcm10-ID, at a concentration of 15 µg ml^−1 in 10 mM sodium acetate, pH 4.5, […], using an amine coupling kit (GE Healthcare) to either flow cell 2 or 4 following manufacturer directions. The reference flow cell (either flow cell 1 or 3) was left untreated. All compounds were dissolved in running buffer (10 mM PBS, 150 mM NaCl, 0.005% P20, pH 7.4) prior to injection over the chip surface at a flow rate of 30 µl min^−1 and at a temperature of 25°C. Zero concentration samples were injected for double referencing. Data were collected at a rate of 40 Hz and were fitted to a simple 1 : 1 interaction model (unless otherwise noted) using the global data analysis within the Biacore S200 evaluation software.

Setting [7] is: predominant low-affinity (or only) component, read-out: fluorescence polarization hRPA70AB Ki2.

Structures are written as SMILES. Where two headings read alike, the source gives them in different places.

Usually IC50 stands for the concentration that inhibits the measured activity by half. As a reminder, the Kd is a measure of binding affinity in units of concentration.

Take `Cc1cc(O)c(C=O)c2c1C(=O)Oc1c(COC(=O)/C=C/C(=O)O)c(O)c(C(=O)O)c(C)c1O2` [fumarprotocetraric acid]: in assay [1], the “DNA replication, [α-32P]dGTP incorporation (result in words)” value (“DNA replication” for short) was “only suramin exhibited a dose-dependent decrease in DNA replication”. In addition, the “inhibition of 5′-6FAM probe binding to xMcm10-ID (result in words)” value (from here on “inhibition of 5′-6FAM probe binding”) in assay [2] was “active”.

For `O=C(Nc1cc(C(=O)Nc2ccc(S(=O)(=O)O)cc2S(=O)(=O)O)cc(C(=O)Nc2ccc(S(=O)(=O)O)cc2S(=O)(=O)O)c1)Nc1cc(C(=O)Nc2ccc(S(=O)(=O)O)cc2S(=O)(=O)O)cc(C(=O)Nc2ccc(S(=O)(=O)O)cc2S(=O)(=O)O)c1` [NF449], the “selectivity for hMcm10 over RPA70AB” value in assay [3] (FP) was “more than 10 fold”. For the same compound, the IC50 in assay [3] (below lower limit of the sensitivity of the assay, read-out: IC50 value for the high affinity component, hRPA70AB) is 93 nM. Also, the Ki in assay [3] (setting [7]) came out at 14000 ± 400 nM. For the same compound, in assay [3], the “selectivity RPA/ hMcm10” value is given as 32. The compound also yielded a Ki in assay [4] of 440 ± 40 nM. Also, the Ki in assay [5] came to 1900 nM. In assay [6], the “surface plasmon resonance hMcm10-ID kd” value is on record as 0.59 ± 0.10 s^−1, the kon is 780000 ± 1e+09 M⁻¹ s⁻¹, the Kd was 740 ± 130 nM and the “SPR binding kinetics (description of sensorgrams)” value was “predominantly rapid kinetics”.

For `CC(=O)Oc1cc(-c2coc3cc(OC(C)=O)c(OC(C)=O)c(OC(C)=O)c3c2=O)cc(OC(C)=O)c1OC(C)=O` [iriginol hexaacetate], in assay [1], the “DNA replication” value was “only suramin exhibited a dose-dependent decrease in DNA replication”. In addition, the “inhibition of 5′-6FAM probe binding” value in assay [2] is “active”.

For the compound `O=C(Nc1cc(C(=O)Nc2ccc(S(=O)(=O)O)cc2)cc(C(=O)Nc2ccc(S(=O)(=O)O)cc2)c1)Nc1cc(C(=O)Nc2ccc(S(=O)(=O)O)cc2)cc(C(=O)Nc2ccc(S(=O)(=O)O)cc2)c1` [NF110], the Ki in assay [3] (high-affinity component of biphasic displacement curve, read-out: fluorescence polarization hRPA70AB Ki1) was determined as 210 ± 40 nM. Further, the Ki in assay [3] (setting [7]) is 23000 ± 1000 nM. Further, in assay [3], the “selectivity RPA/ hMcm10” value is 10. In assay [4], this compound registered a Ki of 2300 ± 100 nM. The same compound registered a Ki in assay [5] of 2900 nM. In assay [6], the “surface plasmon resonance hMcm10-ID kd” value was found to be 0.35 ± 0.19 s^−1, the kon is 290000 ± 1.6e+10 M⁻¹ s⁻¹, the Kd was 1500 ± 200 nM and the “SPR binding kinetics (description of sensorgrams)” value is reported as “predominantly rapid kinetics”.

With `O=[N+]([O-])C(Br)(CO)CO` [bronopol], the “DNA replication” value in assay [1] was “only suramin exhibited a dose-dependent decrease in DNA replication”. Moreover, the “inhibition of 5′-6FAM probe binding” value in assay [2] is “active”.

Turning to `O=C(O)c1cc[c]([Hg][Cl])cc1` [4-chloromercuribenzoic acid], in assay [2], the “inhibition of 5′-6FAM probe binding” value is recorded as “active”.

The values are drawn from paper PMC6731595, “The anti-parasitic agent suramin and several of its analogues are inhibitors of the DNA binding protein Mcm10” (Open Biology, 2019).
